Laboratory results: ChEMBL document CHEMBL1129726, “Tetrazole NK1 receptor antagonists: The identification of an exceptionally potent orally active antiemetic compound” (Bioorg Med Chem Lett, 1996)

What was measured:
Mustela putorius furo = test: In vivo antiemetic activity against radiation-induced emesis in ferret.; format: functional
Substance-P receptor = Substance-P receptor (Homo sapiens, UniProt P25103); test: Inhibition of [3H]-substance P binding to human NK1 receptor expressed in chinese hamster ovary cells; format: cell-based, CHO
Substance-P receptor, sequence (P25103 whole entry): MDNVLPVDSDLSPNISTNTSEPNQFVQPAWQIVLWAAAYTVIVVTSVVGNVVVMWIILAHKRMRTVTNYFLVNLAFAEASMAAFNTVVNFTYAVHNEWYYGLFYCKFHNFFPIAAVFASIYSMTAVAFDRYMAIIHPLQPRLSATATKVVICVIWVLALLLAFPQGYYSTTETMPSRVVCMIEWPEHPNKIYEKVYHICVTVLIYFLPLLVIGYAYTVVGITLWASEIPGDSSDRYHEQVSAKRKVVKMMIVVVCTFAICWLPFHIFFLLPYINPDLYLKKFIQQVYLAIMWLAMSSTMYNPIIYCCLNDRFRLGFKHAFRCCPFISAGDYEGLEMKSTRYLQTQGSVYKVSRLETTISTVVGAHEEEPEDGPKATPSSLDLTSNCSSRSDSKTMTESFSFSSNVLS

COc1ccc(-n2cnnn2)cc1CN[C@H]1CCCN[C@H]1c1ccccc1.Cl.Cl
ED90 (Mustela putorius furo): 0.1 mg/kg
Ki (Substance-P receptor): 0.0398 nM

COc1ccc(-n2nnnc2NC(C)=O)cc1CN[C@H]1CCCN[C@H]1c1ccccc1
Ki (Substance-P receptor): 0.251 nM

COc1ccc(-n2nnnc2SC)cc1CN[C@H]1CCCN[C@H]1c1ccccc1.Cl.Cl
ED90 (Mustela putorius furo): 1 mg/kg
Ki (Substance-P receptor): 0.0398 nM

COc1ccc(-n2nnnc2N)cc1CN[C@H]1CCCN[C@H]1c1ccccc1
Ki (Substance-P receptor): 1 nM

COc1ccc(-n2nnnc2C)cc1CN[C@H]1CCCN[C@H]1c1ccccc1.Cl.Cl
ED90 (Mustela putorius furo): 0.15 mg/kg
Ki (Substance-P receptor): 0.0501 nM

CCN(CC)c1nnnn1-c1ccc(OC)c(CN[C@H]2CCCN[C@H]2c2ccccc2)c1
Ki (Substance-P receptor): 2 nM

CCCc1nnnn1-c1ccc(OC)c(CN[C@H]2CCCN[C@H]2c2ccccc2)c1.Cl.Cl
ED90 (Mustela putorius furo): > 3 mg/kg
Ki (Substance-P receptor): 0.0398 nM

COc1ccc(-n2nnnc2C2CC2)cc1CN[C@H]1CCCN[C@H]1c1ccccc1.Cl.Cl
ED90 (Mustela putorius furo): > 1 mg/kg
Ki (Substance-P receptor): 0.0794 nM

COc1ccc(-n2nnnc2S(C)(=O)=O)cc1CN[C@H]1CCCN[C@H]1c1ccccc1.Cl.Cl
ED90 (Mustela putorius furo): > 1 mg/kg
Ki (Substance-P receptor): 0.0631 nM

CCc1nnnn1-c1ccc(OC)c(CN[C@H]2CCCN[C@H]2c2ccccc2)c1.Cl.Cl
ED90 (Mustela putorius furo): 0.3 mg/kg
Ki (Substance-P receptor): 0.0501 nM

COc1ccc(-n2nnnc2C(F)(F)F)cc1CN[C@H]1CCCN[C@H]1c1ccccc1.Cl.Cl [VOFOPITANT DIHYDROCHLORIDE]
ED90 (Mustela putorius furo): 0.03 mg/kg
Ki (Substance-P receptor): 0.0251 nM

COc1ccc(-n2nnnc2-c2ccccc2)cc1CN[C@H]1CCCN[C@H]1c1ccccc1.Cl.Cl
ED90 (Mustela putorius furo): > 1 mg/kg
Ki (Substance-P receptor): 0.398 nM
